Measurements: patent publication US20210308034A1, “PREBIOTIC COMPOSITIONS AND METHODS FOR MAINTAINING A HEALTHY SKIN MICROBIOTA” (KIMBERLY-CLARK WORLDWIDE, INC., priority 2018, published 2021)

How the values were obtained:
Type in all cases: cell-based
[1] = system: Micrococcus luteus (SK58); experiment: Carbohydrate Screening Test Method (Biolog phenotype microarray), Bacteria Code E; settings: Commensal; carbon microarray plate, OD 600 nm, 36 hr, 33° C.; positive = more than 0.05 OD units above zero; blank cell = not utilized
Source text: (§1) After creating desired ratios of various commensal skin bacteria in a healthy skin microbiome, 188 different carbohydrate sources were screened as the next step in determining potential prospects for skin microbiota balancing agents. The screening process was set up to determine which carbohydrate sources promoted commensal and/or pathogenic bacteria as well as to obtain individual and combinations of carbohydrate sources that could serve as microbiota balancing agents that can support or maintain the healthy proportions of commensal skin bacteria of Corynebacterium, Staphylococcus, and Micrococcus. The screening was conducted utilizing Biolog phenotype microarray plates (Hayward, Calif.). Table 1 provides a coded list of the commensal and pathogenic skin bacteria that the carbohydrates were screened against.
(§2) The Bacteria Codes B, D, E, I, and J are commensal bacteria and are shaded in Table 2 for references purposes. The bacteria codes were each placed in a carbon microarray plate and screened through the Carbohydrate Screening Test Method, as described in the Test Methods section herein. If a particular bacteria code utilized a specific carbohydrate source as described in the Carbohydrate Screening Test Method, then the corresponding cell in Table 2 was marked with a Y (short for “Yes”).
(§3) To do so, the respective microarray data for the 79 carbohydrate sources was run through the GrowthRates 2.1 program to obtain growth parameters, such as growth rates and maximum yield data as described by the Belingham Research Institute, Hall, B. G., H. Acar and M. Barlow. 2014 Growth Rates Made Easy. Mol. Biol. Evol. 31:232-238 doi:10.1093/molbev/mst197. The max yield parameters generated were utilized to calculate ratios of tested commensal bacteria. The ratios calculated were compared back to the desired ratios identified above (Corynebacterium to Staphylococcus of 1.3, Corynebacterium to Micrococcus of 1.4, and Staphylococcus to Micrococcus of 1.1).
(§4) As an example of this methodology used to calculate the commensal bacteria ratios and the difference between the calculated ratios and the desired ratios, an example code from Table 3 will be described. […] The max yields were then used to calculate ratios the bacteria would reach in a co-culture.

[2] = system: Klebsiella pneumoniae (ATCC BAA-2146); settings: Pathogenic; carbon microarray plate, OD 600 nm, 36 hr, 33° C.; positive = more than 0.05 OD units above zero; blank cell = not utilized
Source text: as §1
Table 2 provides the results of screening various carbohydrate sources against the commensal and pathogenic bacteria codes listed in Table 1. The Bacteria Codes B, D, E, I, and J are commensal bacteria and are shaded in Table 2 for references purposes. The bacteria codes were each placed in a carbon microarray plate and screened through the Carbohydrate Screening Test Method, as described in the Test Methods section herein. If a particular bacteria code utilized a specific carbohydrate source as described in the Carbohydrate Screening Test Method, then the corresponding cell in Table 2 was marked with a Y (short for “Yes”). […] Many of the carbohydrate sources were utilized by both commensal and pathogenic bacteria, and as such, would not provide an advantage for selective growth of the commensal bacteria. However, some of the carbohydrate sources were only used by commensal bacteria and were identified for further testing as described herein.
(§5) The study employed 10 representative skin bacteria; Staphylococcus epidermidis ATCC 14990, Staphylococcus epidermidis M23864:W2, Staphylococcus aureus ATCC 6538, Staphylococcus aureus ATCC 25904 (Newman), Pseudomonas aeruginosa ATCC 9027, Micrococcus luteus ATCC […], Micrococcus luteus SK58, Klebsiella pneumoniae ATCC BAA-2146, Corynebacterium amycolatum SK46, and Corynebacterium minutissimum ATCC 23348. Cultures were started from freezer bead stocks by placing a single bead into 20 mL of tryptic soy broth (TSB) for all organisms except C. amycolatum SK46 and C. minutissimum ATCC 23348, which were placed into brain heart infusion (BHI) broth. Cultures were grown for about 24 hr at 37° C. except M. luteus ATCC 49732 and M. luteus SK58, which were grown at 30° C. A passage of the culture was made using a sterile swab and streaked onto two M9*2 agar plates to prepare the incubated culture for the phenotype microarray pate according to Table 4. Plates were incubated for about 24 hr at 37° C. except for M. luteus ATCC 49732 and M. luteus SK58, which were incubated at 30° C. for 24 hr.
(§6) All cultures were harvested and washed before inoculation into the carbon microarray plate (BiOLOG, Hayward Calif.), with Biolog Plates PM1 and PM2 each having a source definition of Carbon. The bacteria on the M9*2 agar was suspended via agitation with an inoculating loop in 1 mL of M9*1 media for collection in a 1.7 mL micro centrifuge tube, as noted in Table 4. The bacteria was suspended again in M9*1 media, agitated, and collected into the same 1.7 mL microcentrifuge tube used in the previous step. The tube was centrifuged for 5 minutes at 4,000×G, supernatant decanted, the pellet was resuspended in 1 mL of M9*1 media, and vortex. This washing process was repeated for a total of 4 times.
A tenfold dilution in M9*1 media was performed using 1 mL of the washed bacterial culture. Of the tenfold dilution 200 μL was placed in an untreated 96-well plate (Falcon, Pasadena Tx.) for an initial optical density (OD) reading at a wavelength of 600 nm. The OD was used to correlate to colony forming units (CFU) per milliliter by using linear regression lines for each organism. […]

[3] = system: Corynebacterium jeikum (ATCC 33033); experiment: Carbohydrate Screening Test Method (Biolog phenotype microarray), Bacteria Code B
Procedure: as §1, with “The” for “After creating desired ratios of various commensal skin bacteria in a healthy skin microbiome, 188 different carbohydrate sources were screened as the next step in determining potential prospects for skin microbiota balancing agents. The”
as §2
as §3, with “2014 Growth Rates Made Easy.” left out, “31:232-238 doi:10.1093/molbev/mst197.” left out
as §4
A passage of the culture was made using a sterile swab and streaked onto two M9*2 agar plates to prepare the incubated culture for the phenotype microarray pate according to Table 4.
All cultures were harvested and washed before inoculation into the carbon microarray plate (BiOLOG, Hayward Calif.), with Biolog Plates PM1 and PM2 each having a source definition of Carbon. The bacteria on the M9*2 agar was suspended via agitation with an inoculating loop in 1 mL of M9*1 media for collection in a 1.7 mL micro centrifuge tube, as noted in Table 4.

[4] = system: Pseudomonas aeruginosa (ATCC 9027); settings: Pathogenic; carbon microarray plate, OD 600 nm, 36 hr, 33° C.; positive = more than 0.05 OD units above zero; blank cell = not utilized
Source text: as §1, §2, §5, §6
A tenfold dilution in M9*1 media was performed using 1 mL of the washed bacterial culture. Of the tenfold dilution 200 μL was placed in an untreated 96-well plate (Falcon, Pasadena Tx.) for an initial optical density (OD) reading at a wavelength of 600 nm. The OD was used to correlate to colony forming units (CFU) per milliliter by using linear regression lines for each organism.

[5] = Commensal, carbon microarray plate, OD 600 nm, 36 hr, 33° C., positive = more than 0.05 OD units above zero, blank cell = not utilized

Molecule | Carbohydrate Screening Results, Bacteria Code E [1] | Carbohydrate Screening Results, Bacteria Code C [2] | Carbohydrate Screening Results, Bacteria Code B [3, 5] | Carbohydrate Screening Results, Bacteria Code F [4] | Carbohydrate Screening Results, Bacteria Code B ([3]; ATCC33033, 36 h)
COC1OC(CO)C(O)C(O)C1O [α-Methyl-D-Galactoside] | Y | Y | Y | – | –
N[C@@H](Cc1c[nH]cn1)C(=O)O [L-Histidine] | – | Y | – | Y | –
CCCCCC(=O)O [Caproic Acid] | – | – | – | Y | –
CCCCCCCCCC(=O)O [Capric Acid] | – | – | – | Y | –
OC[C@@H](O)[C@@H](O)[C@@H](O)CO [Adonitol] | Y | Y | Y | Y | –
CO[C@@H]1O[C@H](CO)[C@@H](O)[C@H](O)[C@H]1O [β-Methyl-D-Galactoside] | – | Y | – | Y | –
O=C(O)[C@H](O)[C@@H](O)C(=O)O [L-Tartaric Acid] | – | Y | – | Y | –
O[C@H]1[C@H](O)[C@@H](O)[C@H](O)[C@@H](O)[C@H]1O [m-Inositol] | Y | Y | Y | – | –
O=P(O)(O)O[C@H]1O[C@H](CO)[C@@H](O)[C@H](O)[C@H]1O [D-Glucose-1-Phosphate] | Y | Y | Y | – | –
N[C@H]1C(O)O[C@H](CO)[C@@H](O)[C@@H]1O (stereo partly drawn) [D-Glucosamine] | – | Y | – | Y | –
NCCc1ccc(O)cc1 [Tyramine] | – | Y | Y | Y | –
O=C(O)[C@]1(O)C[C@@H](O)[C@@H](O)[C@H](O)C1 [Quinic Acid] | – | Y | – | Y | –
NC(=O)CC[C@H](N)C(=O)O [L-Glutamine] | – | Y | Y | – | –
O=C[C@H](O)[C@@H](O)[C@H](O)CO [D-Xylose] | – | Y | – | Y | –
C=C(CC(=O)O)C(=O)O [Itaconic Acid] | – | – | – | Y | –
O=C[C@H](O)[C@@H](O)[C@@H](O)CO [L-Arabinose] | – | Y | – | Y | –

Molecule | Carbohydrate Screening Results, Bacteria Code E [1] | Carbohydrate Screening Results, Bacteria Code C [2] | Carbohydrate Screening Results, Bacteria Code B [3, 5] | Carbohydrate Screening Results, Bacteria Code F [4] | Carbohydrate Screening Results, Bacteria Code B ([3]; ATCC33033, 36 h)
O=C(CO)[C@H](O)[C@H](O)[C@H](O)CO [D-Psicose] | Y | Y | Y | Y | –
OC[C@@H](O)[C@@H](O[C@H]1O[C@H](CO)[C@@H](O)[C@H](O)[C@H]1O)[C@H](O)[C@@H](O)CO [Maltitol] | – | Y | – | Y | –
NC(=O)C[C@H](N)C(=O)O [L-Asparagine] | – | – | Y | Y | –
OC[C@H]1O[C@H](OCC2O[C@@H](O)[C@H](O)[C@@H](O)[C@@H]2O)[C@H](O)[C@@H](O)[C@H]1O (stereo partly drawn) [D-Melibiose] | Y | Y | Y | Y | –
OC[C@@H](O)C(O)[C@H](O)CO [D-Arabitol] | – | Y | – | Y | –
C[C@H](O)[C@@H](O)[C@@H](O)[C@H](O)C=O [L-Fucose] | Y | Y | Y | – | –
CC(O)(CC(=O)O)C(=O)O (centres unmarked) [Citramalic Acid] | – | – | – | Y | –
OC[C@@H](O)[C@@H](O)[C@H](O)[C@@H](O)CO [D-Sorbitol] | Y | Y | – | Y | –
O=C[C@H](O)[C@@H](O)[C@H](O)[C@H](O)C(=O)O [D-Glucuronic Acid] | Y | Y | Y | Y | –
O=C1O[C@@H]([C@H](O)CO)[C@H](O)[C@H]1O [D-Galactonic Acid-γ-Lactone] | – | Y | – | Y | –
O=C1CC[C@@H](C(=O)O)N1 [L-Pyroglutamic Acid] | – | – | – | Y | –
N[C@@H](CCC(=O)O)C(=O)O [L-Glutamic Acid] | – | – | – | Y | Y
C[C@H](O)[C@H](O)[C@@H](O)[C@@H](O)C=O [L-Rhamnose] | Y | Y | Y | – | –
Gentiobiose | – | Y | – | Y | –
CCCC(=O)O [Butyric Acid] | – | – | – | Y | –
